Measured values reported in PubChem BioAssay (NCI).
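Grown in 96-well plates, cells were treated for 48 hours with each compound at five concentrations. Insufficient inhibition: endpoint recorded as highest concentration tested. Here, GI50 denotes the concentration required for 50% inhibition of growth. TGI: concentration producing complete growth inhibition.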

Key:
Test in all cases: DTP human tumour cell line panel, 48 h
[1] = test system: 786-0 renal
[2] = test system: A498 renal
[3] = test system: A549 NSCLC
[4] = test system: ACHN renal
[5] = test system: BT-549 breast
[6] = test system: CAKI-1 renal
[7] = test system: CCRF-CEM leukemia
[8] = test system: COLO 205 colon
[9] = test system: DU-145 prostate
[10] = test system: EKVX NSCLC
[11] = test system: HCC-2998 colon
[12] = test system: HCT-116 colon
[13] = test system: HCT-15 colon
[14] = test system: HL-60(TB) leukemia
[15] = test system: HOP-62 NSCLC
[16] = test system: HOP-92 NSCLC
[17] = test system: HS 578T breast
[18] = test system: HT29 colon
[19] = test system: IGROV1 ovarian
[20] = test system: K-562 leukemia
[21] = test system: KM12 colon
[22] = test system: LOX IMVI melanoma
[23] = test system: M14 melanoma
[24] = test system: MALME-3M melanoma
[25] = test system: MCF7 breast
[26] = test system: MDA-MB-231 breast
[27] = test system: MDA-MB-435
[28] = test system: MDA-MB-468 breast
[29] = test system: MOLT-4 leukemia
[30] = test system: NCI-H226 lung
[31] = test system: NCI-H23 lung
[32] = test system: NCI-H460 lung
[33] = test system: NCI-H522 lung
[34] = test system: NCI/ADR-RES ovarian
[35] = test system: OVCAR-3 ovarian
[36] = test system: OVCAR-4 ovarian
[37] = test system: OVCAR-5 ovarian
[38] = test system: OVCAR-8 ovarian
[39] = test system: PC-3 prostate
[40] = test system: RPMI-8226 leukemia
[41] = test system: RXF 393 renal
[42] = test system: SF-268 CNS
[43] = test system: SF-295 CNS
[44] = test system: SF-539 CNS
[45] = test system: SK-MEL-2 melanoma
[46] = test system: SK-MEL-28 melanoma
[47] = test system: SK-MEL-5 melanoma
[48] = test system: SK-OV-3 ovarian
[49] = test system: SN12C renal
[50] = test system: SNB-19 CNS
[51] = test system: SNB-75 CNS
[52] = test system: SR leukemia
[53] = test system: SW-620 colon
[54] = test system: T-47D breast
[55] = test system: TK-10 renal
[56] = test system: U251 CNS
[57] = test system: UACC-257 melanoma
[58] = test system: UACC-62 melanoma
[59] = test system: UO-31 renal

With CCN1C(=O)N(CC)C2NNC(Sc3c(C(=O)O)c4ccccc4n(C4CCCC4)c3=O)=NC21 (stereo not drawn) the GI50 [1] was 4.36 µM, the TGI [1] was 19.4 µM and the GI50 [2] was 14.8 µM. It also gave a TGI [2] of 42.8 µM, a GI50 [3] of 4.04 µM and a TGI [3] of 17.8 µM. The GI50 [4] was 4.36 µM, the TGI [4] was 16.3 µM and the GI50 [5] was 9.6 µM. It also gave a TGI [5] of 24.4 µM, a GI50 [6] of 3.97 µM and a TGI [6] of 16.5 µM. The GI50 [7] was 3.45 µM, the TGI [7] was 38.3 µM and the GI50 [8] was 2.04 µM. The TGI [8] was 4.16 µM, the GI50 [9] was 3.91 µM and the TGI [9] was 18.3 µM. It also gave a GI50 [10] of 4.69 µM, a TGI [10] of 27.4 µM and a GI50 [11] of 2.84 µM. For the same molecule, the TGI [11] was 9.8 µM, the GI50 [12] was 3.09 µM and the TGI [12] was 11.2 µM. For the same molecule, the GI50 [13] was 2.85 µM, the TGI [13] was 11.2 µM and the GI50 [14] was 2.35 µM. It also gave a TGI [14] of 6.86 µM, a GI50 [15] of 5.75 µM and a TGI [15] of 37.2 µM. It also gave a GI50 [16] of 10.3 µM, a TGI [16] of 35 µM and a GI50 [17] of 2.21 µM. The TGI [17] was 8.88 µM, the GI50 [18] was 3.13 µM and the TGI [18] was 10.5 µM. For the same molecule, the GI50 [19] was 4.41 µM, the TGI [19] was 29.4 µM and the GI50 [20] was 3.13 µM. The TGI [20] was greater than 100 µM, the GI50 [21] was 3.3 µM and the TGI [21] was 16.9 µM. It also gave a GI50 [22] of 3.87 µM, a TGI [22] of 16.2 µM and a GI50 [23] of 3.28 µM. It also gave a TGI [23] of 13.3 µM, a GI50 [24] of 7.36 µM and a TGI [24] of 25.6 µM. The GI50 [25] was 2.07 µM, the TGI [25] was 13.3 µM and the GI50 [26] was 3.03 µM. For the same molecule, the TGI [26] was 11.5 µM, the GI50 [27] was 1.47 µM and the TGI [27] was 3.85 µM. For the same molecule, the GI50 [28] was 2.02 µM, the TGI [28] was 6.05 µM and the GI50 [29] was 3.88 µM. The TGI [29] was 50.3 µM, the GI50 [30] was 4.34 µM and the TGI [30] was 17.7 µM. It also gave a GI50 [31] of 3.44 µM, a TGI [31] of 15.4 µM and a GI50 [32] of 2.6 µM. It also gave a TGI [32] of 10.7 µM, a GI50 [33] of 1.54 µM and a TGI [33] of 3.74 µM. For the same molecule, the GI50 [34] was 1.92 µM, the TGI [34] was 4.42 µM and the GI50 [35] was 3.21 µM. It also gave a TGI [35] of 12.8 µM, a GI50 [36] of 6.15 µM and a TGI [36] of 45 µM. It also gave a GI50 [37] of 4.09 µM, a TGI [37] of 22.1 µM and a GI50 [38] of 3.28 µM. The TGI [38] was 12.7 µM, the GI50 [39] was 4.06 µM and the TGI [39] was 33.6 µM. The GI50 [40] was 4.17 µM, the TGI [40] was 25.9 µM and the GI50 [41] was 2.85 µM. The TGI [41] was 11.9 µM, the GI50 [42] was 4.47 µM and the TGI [42] was 45.4 µM. The GI50 [43] was 2.41 µM, the TGI [43] was 7.88 µM and the GI50 [44] was 2.14 µM. It also gave a TGI [44] of 5.51 µM, a GI50 [45] of 4.15 µM and a TGI [45] of 19.4 µM. For the same molecule, the GI50 [46] was 6.95 µM, the TGI [46] was 25.7 µM and the GI50 [47] was 3.49 µM. For the same molecule, the TGI [47] was 13.6 µM, the GI50 [48] was 3.35 µM and the TGI [48] was 20.8 µM. For the same molecule, the GI50 [49] was 3.41 µM, the TGI [49] was 16.1 µM and the GI50 [50] was 4.59 µM. For the same molecule, the TGI [50] was 57.3 µM, the GI50 [51] was 1.51 µM and the TGI [51] was 11.8 µM. For the same molecule, the GI50 [52] was 3.4 µM, the TGI [52] was 35.7 µM and the GI50 [53] was 3.3 µM. For the same molecule, the TGI [53] was 17.1 µM, the GI50 [54] was 7.2 µM and the TGI [54] was 72.7 µM. For the same molecule, the GI50 [55] was 10.3 µM, the TGI [55] was 31.3 µM and the GI50 [56] was 3.66 µM. It also gave a TGI [56] of 15.3 µM, a GI50 [57] of 7.65 µM and a TGI [57] of 28.2 µM. It also gave a GI50 [58] of 3.05 µM, a TGI [58] of 16.3 µM and a GI50 [59] of 4.38 µM. For the same molecule, the TGI [59] was 22.9 µM.
